Active and inactive are the calls of the source. No cut-off for these calls is given here.
Legend:
[1] = system: A-375; assay: Antiproliferative activity against human A375 cells after 72 hrs by MTT assay; assay type: functional, cell-based; settings: A-375, 72 h
[2] = system: M14; assay: Antiproliferative activity against human M14 cells after 72 hrs by MTT assay; assay type: functional, cell-based; settings: M14, 72 h
[3] = system: WM164; assay: Antiproliferative activity against human WM164 cells after 72 hrs by MTT assay; assay type: functional, cell-based; settings: WM164, 72 h
[4] = Half-life in CD-1 mouse liver microsomes in presence of NADPH regenerating system measured up to 4 hrs by UPLC-MS analysis; assay type: ADME, Microsome
[5] = Intrinsic clearance in CD-1 mouse liver microsomes in presence of NADPH regenerating system measured up to 4 hrs by UPLC-MS analysis; assay type: ADME, Microsome; settings: read-out: CLH
[6] = Half-life in rat liver microsomes pre-incubated for 15 mins followed by addition of NADPH regenerating system by LC-MS analysis; assay type: ADME, Microsome
[7] = Intrinsic clearance in rat liver microsomes pre-incubated for 15 mins followed by addition of NADPH regenerating system by LC-MS analysis; assay type: ADME, Microsome; settings: read-out: CLH
[8] = Half-life in human liver microsomes in presence of NADPH regenerating system; assay type: ADME, Microsome
[9] = Intrinsic clearance in human liver microsomes in presence of NADPH regenerating system; assay type: ADME, Microsome; settings: read-out: CLH
[10] = system: A-375; assay: Antitumor activity against human A375 cells xenografted in nude mouse assessed as tumor growth inhibition at 15 mg/kg, ip administered once daily for 14 days and measured after 20 days by caliper method relative to control; assay type: functional; settings: A-375, ip, read-out: TGI
[11] = Antiproliferative activity against human DU145-TxR cells; assay type: functional, cell-based
[12] = system: PC-3; assay: Antitumor activity against human PC3 cells xenografted in nude mouse assessed as tumor growth inhibition at 15 mg/kg administered every other day for 3 weeks relative to control; assay type: functional; settings: PC-3, 504 h, read-out: TGI
[13] = Antitumor activity against human PC3-TxR cells xenografted in nude mouse assessed as tumor growth inhibition at 15 mg/kg administered every other day for 3 weeks relative to control; assay type: functional; settings: 504 h, read-out: TGI
[14] = Antitumor activity against human PC3-TxR cells xenografted in nude mouse assessed as reduction in tumor weight at 15 mg/kg administered every other day for 3 weeks relative to control; assay type: functional; parameters: scale not given: the % may be the effect or the level left
[15] = target: T1, Tubulin (Bos taurus) (UniProt Q6B856+Q862L2+Q862F3); assay: Inhibition of bovine brain tubulin polymerization at 10 uM measured at time interval of 1 mins for 20 mins by spectrophotometric analysis
[16] = target: T2, Tubulin (Homo sapiens) (UniProt P68371+Q9H4B7+P0DPH7+P68366+Q13509+Q71U36+P04350+Q3ZCM7+P07437+P68363+Q9BQE3+Q6PEY2+Q13885+Q9BVA1+Q9BUF5); assay: Disruption of microtubule network in human WM164 cells assessed as microtubule fragmentation at 100 nM after 18 hrs by DAPI staining based fluorescence confocal microscopic method; assay type: cell-based
[17] = target: T2, Tubulin (Homo sapiens); assay: Disruption of microtubule network in human WM164 cells assessed as microtubule disassembly at 100 nM after 18 hrs by DAPI staining based fluorescence confocal microscopic method; assay type: cell-based
[18] = system: A-375; assay: Inhibition of anchorage-dependent colony formation in human A375 cells assessed as decrease in colony number at 5 nM after 12 days by crystal violet-staining based assay relative to control; assay type: functional; settings: A-375, 288 h
[19] = system: A-375; assay: Antimigratory activity in human A375 cells assessed as wound closure at 5 nM after 22 hrs by scratch migration assay (reference value: 60.7 +/- 3.5%); assay type: functional
[20] = system: A-375; assay: Antimigratory activity in human A375 cells assessed as wound closure at 25 nM after 22 hrs by scratch migration assay (reference value: 60.7 +/- 3.5%); assay type: functional
[21] = system: RPMI-7951; assay: Antimigratory activity in human RPMI7951 cells assessed as wound closure at 25 nM after 18 hrs by scratch migration assay (reference value: 71.8 +/- 1.8%); assay type: functional
[22] = system: PC-3; assay: Antiproliferative activity against human PC3 cells; assay type: functional, cell-based
[23] = Antiproliferative activity against human PC3-TxR cells; assay type: functional, cell-based
[24] = Resistance index, ratio of IC50 for human PC3-TxR cells to IC50 for human PC3 cells; assay type: functional
[25] = system: DU-145; assay: Antiproliferative activity against human DU145 cells; assay type: functional, cell-based
[26] = Resistance index, ratio of IC50 for human DU145-TxR cells to IC50 for human DU145 cells; assay type: functional
[27] = target: T1, Tubulin (Bos taurus); assay: Induction of bovine brain tubulin polymerization at 10 uM measured at time interval of 1 mins for 20 mins by spectrophotometric analysis
[28] = target: T2, Tubulin (Homo sapiens); assay: Effect on microtubule network in human WM164 cells assessed as induction of polymerization at 100 nM after 18 hrs by DAPI staining based fluorescence confocal microscopic method; assay type: cell-based
[29] = target: T2, Tubulin (Homo sapiens); assay: Effect on microtubule network in human WM164 cells assessed as formation of dense and aggregated bundles of microtubules at 100 nM after 18 hrs by DAPI staining based fluorescence confocal microscopic method; assay type: cell-based

| SMILES | IC50 ([1]; read-out: IC50) [µM] | IC50 [2] [µM] | IC50 [3] [µM] | also measured |
| --- | --- | --- | --- | --- |
| COc1cc(C(=O)c2c[nH]c(-c3c[nH]c4cc(Br)ccc34)n2)cc(OC)c1OC | 0.0678 | 0.0412 | 0.0554 | – |
| COc1cc(C(=O)c2c[nH]c(-c3c[nH]c4cccc(F)c34)n2)cc(OC)c1OC | 0.0072 | 0.0082 | – | – |
| COc1cc(C(=O)c2c[nH]c(-c3c[nH]c4cc(C)ccc34)n2)cc(OC)c1OC | 0.0211 | 0.0217 | 0.0237 | – |
| COc1cc(C(=O)c2c[nH]c(-c3c[nH]c4c(OCc5ccccc5)cccc34)n2)cc(OC)c1OC | > 1 | > 1 | > 1 | – |
| COc1cc(C(=O)c2c[nH]c(-c3ccc4cc[nH]c4c3)n2)cc(OC)c1OC | 0.008 | 0.0061 | 0.0038 | half-life [4]: 5.56 h; CLint scaled [5]: 10.3 mL/min/kg; half-life [6]: 15.2 h; CLint scaled [7]: 3.1 mL/min/kg; half-life [8]: 7.61 h; CLint scaled [9]: 2.73 mL/min/kg |
| COc1cc(C(=O)c2c[nH]c(-c3cccc4cc[nH]c34)n2)cc(OC)c1OC | 0.286 | 0.241 | 0.436 | – |
| COc1cc(C(=O)c2c[nH]c(-c3c[nH]c4c(OC)cccc34)n2)cc(OC)c1OC | 0.0383 | 0.0341 | 0.115 | – |
| COc1cc(C(=O)c2c[nH]c(-c3c[nH]c4ccc(O)cc34)n2)cc(OC)c1OC | > 1 | > 1 | > 1 | – |
| COc1ccc2c(-c3nc(C(=O)c4cc(OC)c(OC)c(OC)c4)c[nH]3)c[nH]c2c1 | 0.793 | > 1 | > 1 | – |
| COc1cc(C(=O)c2c[nH]c(-c3c[nH]c4cccc(OC)c34)n2)cc(OC)c1OC | > 1 | > 1 | > 1 | – |
| COc1cc(C(=O)c2c[nH]c(-c3c[nH]c4ccc(Br)cc34)n2)cc(OC)c1OC | 0.164 | 0.104 | 0.442 | – |
| CC(=O)O[C@H]1C(=O)[C@@]2(C)[C@H]([C@H](OC(=O)c3ccccc3)[C@]3(O)C[C@H](OC(=O)[C@H](O)[C@@H](NC(=O)c4ccccc4)c4ccccc4)C(C)=C1C3(C)C)[C@]1(OC(C)=O)CO[C@@H]1C[C@@H]2O [PACLITAXEL] | – | – | – | inhibition in vivo at 15 mg/kg [10]: 68.6%; IC50 [11]: > 1 µM; inhibition in vivo at 15 mg/kg [12]: 101%; inhibition in vivo at 15 mg/kg [13]: 37.8%; Activity [14]: 34.5% |
| COc1cc(C(=O)c2c[nH]c(-c3c[nH]c4ccc(Cl)cc34)n2)cc(OC)c1OC | 0.0618 | 0.0649 | 0.16 | – |
| COc1cc(C(=O)c2c[nH]c(-c3c[nH]c4cccc(C)c34)n2)cc(OC)c1OC | 0.0018 | 0.0017 | 0.0032 | inhibition [15]: Active; Activity [16]: Active; Activity [17]: Active; inhibition at 0.005 µM [18]: 59%; Activity [19]: 48.5%; Activity [20]: 25.9%; Activity [21]: 35.6%; half-life [4]: 2.42 h; CLint scaled [5]: 23.6 mL/min/kg; half-life [6]: 1.8 h; CLint scaled [7]: 26 mL/min/kg; half-life [8]: 6.7 h; CLint scaled [9]: 3.1 mL/min/kg; IC50 [22]: 0.0052 µM; IC50 [23]: 0.0039 µM; Ratio IC50 [24]: 0.8; IC50 [25]: 0.0138 µM; IC50 [11]: 0.0252 µM; Ratio IC50 [26]: 1.8 |
| COc1cc2c(c(OC)c1OC)-c1ccc(OC)c(=O)cc1[C@@H](NC(C)=O)CC2 [COLCHICINE] | – | 0.0166 | 0.0108 | IC50 [1]: 0.0141 µM; inhibition at 0.005 µM [18]: 24.7%; Activity [19]: 46%; Activity [20]: 20.7%; Activity [21]: 42.8%; IC50 [22]: 0.0104 µM; IC50 [23]: 0.0374 µM; Ratio IC50 [24]: 3.6; IC50 [25]: 0.0355 µM; IC50 [11]: > 1 µM; Ratio IC50 [26]: >28 |
| COc1cc(C(=O)c2c[nH]c(-c3ccc4[nH]ccc4c3)n2)cc(OC)c1OC | 0.0086 | 0.0185 | 0.0061 | – |
| COc1cc(C(=O)c2c[nH]c(-c3c[nH]c4ccc(C)cc34)n2)cc(OC)c1OC | 0.278 | 0.177 | 0.552 | – |
| COc1cc(C(=O)c2c[nH]c(-c3c[nH]c4ccc(F)cc34)n2)cc(OC)c1OC | 0.0192 | 0.018 | 0.0809 | – |
| COc1cc(C(=O)c2c[nH]c(-c3c[nH]c4cc(F)ccc34)n2)cc(OC)c1OC | 0.0175 | 0.0058 | 0.0103 | – |
| COc1cc(C(=O)c2c[nH]c(-c3c[nH]c4cc(OCc5ccccc5)ccc34)n2)cc(OC)c1OC | > 1 | > 1 | > 1 | – |
| COc1cc(C(=O)c2c[nH]c(-c3c[nH]c4c(C)cccc34)n2)cc(OC)c1OC | 0.0131 | 0.0108 | 0.0613 | – |
| COc1cc(C(=O)c2c[nH]c(-c3c(-c4ccccc4)[nH]c4ccccc34)n2)cc(OC)c1OC | > 1 | > 1 | > 1 | – |
| COc1cc(C(=O)c2c[nH]c(-c3c[nH]c4cccc(Br)c34)n2)cc(OC)c1OC | 0.0138 | 0.0104 | 0.0671 | – |
| CC(=O)O[C@@]12CO[C@@H]1C[C@H](O)[C@@]1(C)C(=O)[C@H](O)C3=C(C)[C@@H](OC(=O)[C@H](O)[C@@H](NC(=O)OC(C)(C)C)c4ccccc4)C[C@@](O)([C@@H](OC(=O)c4ccccc4)[C@H]21)C3(C)C [DOCETAXEL ANHYDROUS] | – | – | – | IC50 [11]: 0.352 µM; Ratio IC50 [26]: >3523; Activity [27]: Active; Activity [28]: Active; Activity [29]: Active |
| COC(=O)c1ccc2c(-c3nc(C(=O)c4cc(OC)c(OC)c(OC)c4)c[nH]3)c[nH]c2c1 | > 1 | > 1 | > 1 | – |
| COc1cc(C(=O)c2c[nH]c(-c3c[nH]c4cc(O)ccc34)n2)cc(OC)c1OC | > 1 | > 1 | > 1 | – |
| COc1cc(C(=O)c2c[nH]c(-c3c[nH]c4ccc(OCc5ccccc5)cc34)n2)cc(OC)c1OC | > 1 | > 1 | > 1 | – |
| COc1cc(C(=O)c2c[nH]c(-c3c[nH]c4cccc(OCc5ccccc5)c34)n2)cc(OC)c1OC | > 1 | > 1 | > 1 | – |

Source: ChEMBL document CHEMBL4364286, “Structure-Guided Design, Synthesis, and Biological Evaluation of (2-(1H-Indol-3-yl)-1H-imidazol-4-yl)(3,4,5-trimethoxyphenyl) Methanone (ABI-231) Analogues Targeting the Colchicine Binding Site in Tubulin” (J Med Chem, 2019)
